Results on one molecule are retold here after patent publication US10722491B2, “Phenol compound and combination of same with a benzodiazepine fused to 1,4-dihydropyridine for treating diseases of the central nervous and vascular systems” (UNIVERSIDAD DE LA HABANA, priority 2016, dated 2020).

Data set [1] is described as follows: Spectrophotometric evidence of interactions between KM-34 and Fe2+. It counts as physicochemical. Conditions: 100 μM KM-34; FeCl2 50, 100 and 200 μM; pH 7.4. The protocol:
FIG. 4. Maximum absorption data on UV-VIS (200-500 nm) of the 100 μM KM-34 in a mixture of 10 mM phosphate buffer (KH2PO4/ KOH) pH 7.4 and absolute ethanol 14:1 (v:v) and The absorbance in the presence of FeCl2 (50, 100 and 200 μM) dissolved in 10mM HCL.
In order to verify the existence of possible interactions between KM-34 and Fe2+ (through modifications in their spectra), the following results were obtained:
This could indicate possible interactions between Fe2+ and KM-34 where the ion is stabilized at Fe3+ by unsaturated ligands due to the stabilization of the larger crystalline field from an electron configuration d6 (Fe2+) to a d5 (Fe3+) (Hider et al., 1981, Hider et al., 1983). This justifies the response obtained in the oxidative degradation test of DR where it was observed that the KM-34 in these conditions seems to act more as a coordinator of Fe2+ than as a .OH scavenger.

In the next data set the test system is PC12 cells. Nature of the data set: Cytoprotection against H2O2 damage in PC12 cells (MTT). It counts as cell-based. How it is done:
FIG. 7. Cytoprotective effect of KM-34 (1-100 μM) against damage induced by H2O2 (150 μM) in cultures of PC12 cells. Viability (% live cells) was determined by the MTT assay. Cells were seeded at a density of 5×10^5 cells/mL in a 96-well plate. The KM-34 was added simultaneously to the addition of the H2O2 mixture. The culture was then allowed to incubate at 37° C, […] and 5% CO 2 for 4 hours. After this time the supernatant was removed and the cells were incubated with 20 μg of MTT for an additional 2 hours and the absorbance at 450 nm was measured with reference to 630 nm. The results are expressed as percentage of live cells relative to the control (undamaged cells, 100% live cells). The * represents significant differences (p<0.05) with respect to the H2O2 control.
FIG. 15. The survival rate for […] administered 150 μM H2O2 is shown. The control group was not administered 150 μM H2O2. The remaining four groups were administered 150 μM H2O2. The “H2O2 150 μM” group was not administered any compounds of the invention. The “JM 1 μM” group was administered 1 μM JM-20. The “KM 0.1 μM” group was administered 0.1 μM KM-34. The “JM 1 μM+KM 0.1 μM” group was administered 1 μM JM-20 and 0.1 μM KM-34.
H2O2 is formed in vivo spontaneously or enzymatically. At low concentrations this may be poorly reactive, however at high concentrations it may interact with and generate inactivation of the energy generating systems of the cells. In addition H2O2 is able to oxidize —SH groups of proteins and cause DNA strand rupture. Their most damaging effect is the formation of catalyzed transition metals by the Fenton-Habber-Weiss reaction (Martinez, 2005). This is based on the use of H2O2 in this test, with the aim of observing if the KM-34 is capable of reversing the damages caused by the chemical agent.

Data set [2] concerns animals damaged with 6-OHDA. Nature of the data set: 6-OHDA Parkinson's model, cylinder test. It counts as in vivo, rats. The following applies: 7 days after 6-OHDA damage.
Data set [3] concerns scopolamine cognitive deficit. Nature of the data set: Scopolamine-induced dementia, new-object recognition. It counts as in vivo, rats. Conditions: 4 and 8 mg/kg p.o., 1 hour before scopolamine 1 mg/kg i.p. How it is done: FIG. 12. Effect of KM-34 on the recognition memory of new objects. In the new-object recognition test, KM-34 (2, 4 and 8 mg/kg, p.o) was administered 1 hour prior to scopolamine (1 mg/kg, i.p.) prior to the training phase. The results are expressed as the discrimination rate of the total time by scanning the object N with respect to F. The data are expressed as mean ± SD (n=8, per group). For statistical analysis, ANOVA and Tukey's multiple comparison test were performed. Different letters differ from each other for p<0.01.
In in vivo models, KM-34 was administered orally (p.o) at a rate of 4 mL/kg body weight. Doses of 2, 4 and 8 mg/kg were evaluated as acute administration 90 minutes before the start of behavioral tests. For administration the compound was suspended in carboxymethylcellulose (CMC) 0.05%. Scopolamine bromide was dissolved in 0.9% saline solution and administered intraperitoneally as a single dose (1 mg/kg, 4 mL/kg body weight) 30 minutes prior to the initiation of the behavioral tests. […]
This trial was conducted as proposed by Capurro et al. (Capurro et al., 2013), in an open field, on two successive days. […] The tests were video-recorded for the analysis of the exploration of the objects, defined by the time of exploration that the animal performs to each object. The discrimination rates between the F and N objects were calculated as: ID=(N−F)/(N+F).

On to `CC1(C)OC(=O)C(=Cc2ccc(O)c(O)c2)C(=O)O1` [KM-34, 5-[(3,4-dihydroxyphenyl)methylidene]-2,2-dimethyl-1,3-dioxane-4,6-dione], for which the “Absorbance of KM-34 at absorption maxima 262, 345 and 472 nm in presence of Fe2+” value in data set [1] is given as “is modified as the concentration of the ferrous ion increases”. In addition, the “Concentration achieving significant cellular survival against H2O2” value in the data set on PC12 cells (150 μM H2O2, 4 hours) is on record as “higher than 5 μM”. Further, the “% cell survival” value with PC12 cells (150 μM H2O2, concentrations higher than 50 μM) was about 90%. Further, in the data set on PC12 cells (150 μM H2O2, from 25 μM KM-34), the Cellular survival response result was “higher than 50%”. The “% asymmetry, cylinder test” value in data set [2] (0.5 mg/kg) is reported as “no statistically significant difference with respect to the damaged group without treatment”; in data set [2] (2 mg/kg and 1 mg/kg) it was “equal to the animals (healthy) animals”. Also, the “Recognition memory, discrimination index of new objects” value in data set [3] was “able to revert the affectation on the learning and the memory of term recognition induced by scopolamine”.
